Results taken from patent US20080299170A1, “Medical Devices and Coatings Therefor” (Aston University, priority 2005, published 2008).
Where two headings read alike, the source gives them in different places.

Assays:
factor XIIIa [1] = molecular target: T1, factor XIIIa (Homo sapiens, UniProt P00488); test: factor XIIIa inhibition (IC50); format: biochemical; conditions: ref [14], unpublished observations
T1 sequence (P00488 39-732 limits assumed): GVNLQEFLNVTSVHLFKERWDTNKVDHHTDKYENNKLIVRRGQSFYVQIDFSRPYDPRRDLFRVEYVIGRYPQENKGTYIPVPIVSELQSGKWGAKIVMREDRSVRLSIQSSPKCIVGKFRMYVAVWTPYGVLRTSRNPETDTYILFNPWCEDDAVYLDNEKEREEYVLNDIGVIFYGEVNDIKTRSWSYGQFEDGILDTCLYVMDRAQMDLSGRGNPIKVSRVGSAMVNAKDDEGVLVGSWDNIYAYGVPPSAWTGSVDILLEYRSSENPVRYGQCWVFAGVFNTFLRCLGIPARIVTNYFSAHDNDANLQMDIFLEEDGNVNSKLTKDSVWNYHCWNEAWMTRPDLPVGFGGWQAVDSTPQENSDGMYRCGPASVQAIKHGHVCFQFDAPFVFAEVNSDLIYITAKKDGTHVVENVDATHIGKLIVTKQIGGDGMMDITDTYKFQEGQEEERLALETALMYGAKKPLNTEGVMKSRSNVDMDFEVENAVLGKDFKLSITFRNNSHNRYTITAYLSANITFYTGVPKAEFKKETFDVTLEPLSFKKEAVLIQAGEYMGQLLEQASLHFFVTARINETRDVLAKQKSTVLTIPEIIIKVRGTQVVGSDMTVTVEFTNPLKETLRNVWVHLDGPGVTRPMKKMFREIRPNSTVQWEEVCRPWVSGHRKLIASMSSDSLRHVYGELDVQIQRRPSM

[2] = molecular target: T2, bovine epidermal transglutaminase (Bos taurus, UniProt A6QP57); conditions: Castelhano et al., Bioorg. Chem. (1988) 16, 335-340; cited from earlier work
T2 sequence (A6QP57 1-691): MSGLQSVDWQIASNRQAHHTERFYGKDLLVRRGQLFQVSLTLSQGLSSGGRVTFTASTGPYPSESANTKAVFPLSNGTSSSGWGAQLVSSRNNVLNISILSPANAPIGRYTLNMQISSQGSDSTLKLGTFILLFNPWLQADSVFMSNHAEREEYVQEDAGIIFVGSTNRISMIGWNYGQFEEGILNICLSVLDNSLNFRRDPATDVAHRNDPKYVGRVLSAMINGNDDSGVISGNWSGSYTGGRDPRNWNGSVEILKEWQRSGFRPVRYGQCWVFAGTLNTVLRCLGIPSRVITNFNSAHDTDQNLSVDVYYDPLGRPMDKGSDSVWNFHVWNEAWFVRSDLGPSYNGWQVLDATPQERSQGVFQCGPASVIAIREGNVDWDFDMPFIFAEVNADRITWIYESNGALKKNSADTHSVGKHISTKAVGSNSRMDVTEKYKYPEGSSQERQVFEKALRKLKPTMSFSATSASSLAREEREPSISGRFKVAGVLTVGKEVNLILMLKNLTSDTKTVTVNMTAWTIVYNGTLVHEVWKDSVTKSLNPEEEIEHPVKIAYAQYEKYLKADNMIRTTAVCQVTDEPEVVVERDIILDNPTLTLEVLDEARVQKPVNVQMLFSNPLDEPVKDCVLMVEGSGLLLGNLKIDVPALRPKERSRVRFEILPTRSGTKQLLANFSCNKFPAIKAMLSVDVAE

human blood clots = test: in vitro assay of fibrinolysis (human blood clot lysis); conditions: 250 μM compound, human whole blood clot, TPA; for fibrinogen (FITC-fibrinogen) release from clots: FIG. 2; for red blood cell release from the blood clots: absorbance 750 nm, FIG. 1
Protocol: A number of TGase inhibitors show promise for exploitation in therapeutic areas where TGase has been implicated. […] Compounds 1 and 3 were evaluated for stimulation of thrombolysis (human blood clot lysis) and associated release of embedded staphylococci using an in vitro assay of fibrinolysis as shown below.
Fresh human venous blood (1 ml) was collected by venepuncture in 13 mM citrate. After addition of Staphylococcus aureus NCTC 8325 (to 10^6 cfu/ml), tissue plasminogen activator (TPA, to 100 ng/ml) and FITC-labelled fibrinogen (to 10 μg/ml) aqueous solutions of compounds 1 or 3 (to 250 μM) or water (control), the blood was clotted by addition of CaCl2 (to 20 mM) and allowed to cross-link for 1 hr at 37° C. Blood clots were washed three times each in 1 ml sterile phosphate buffered saline (PBS), resuspended in 1 ml PBS containing 10 μg/ml TPA and incubated with shaking at 37° C. Samples of the clot suspending fluid were withdrawn at intervals and measured for red blood cell content (absorbance 750 nm), fibrinolysis (fluorescence) and release of Staphylococcus aureus (by viable counting).

[3] = release of inhibitor from coated polyurethane catheter; format: physicochemical; conditions: polylactide-glycolide coating, phosphate buffered saline 37° C., over a 336 hour period, FIG. 4
Protocol: Catheter sections (2 cm, polyurethane Venflon, BD […]) were immersed in a solution of compound 3 (10 mg/ml), dissolved in polylactide-glycolide in dichloromethane (256 mg/ml) and allowed to dry in air. Individual sections were placed in 2 ml of phosphate buffered saline at 37° C. with constant shaking. Release of compound 3 was measured by assaying the phosphate buffered saline over a 336 hour period.

factor XIIIa [4] = molecular target: T1, factor XIIIa; conditions: Proof of Principle Studies, ref [10]; cited from earlier work
thrombus = conditions: ref [11]; cited from earlier work
[5] = system: femoral artery thrombosis; conditions: ref [11]; cited from earlier work
fibrin clot = test: stabilized fibrin clot formation; format: biochemical

Structure (SMILES)	IC50 (factor XIIIa [1]) [µM]	inhibition of bovine epidermal transglutaminase [2]	fibrinogen (FITC-fibrinogen) release from clots (human blood clots)	red blood cell release from the blood clots (human blood clots)	release of inhibitor from a coated catheter [3]	IC50 (factor XIIIa [4]) [µM]	thrombolysis in vitro (thrombus)	thrombolysis in a rabbit model of femoral artery thrombosis [5]	inhibition of stabilized fibrin clot formation (fibrin clot)
C[S+](C)CC(=O)CC[C@H](NC(=O)[C@@H]1CCCN1C(=O)OCc1ccccc1)C(=O)O [Compound 2, N-Benzyloxycarbonyl-L-prolinyl-6-dimethylsulfonium-5-oxo-L-norleucine]	10								
O=C(N[C@@H](Cc1ccccc1)C(=O)NCC1CC(Br)=NO1)OCc1ccccc1 (stereo partly drawn) [(S)-1-[(3-Bromo-4,5-dihydro-isoxazol-5-ylmethyl)-carbamoyl]-2-phenyl-ethyl}-carbamic acid benzyl ester]		inhibitor							
CC(=O)CSc1n(C)cc[n+]1C [Compound 3]			greatly increased	increased	prolonged release	50	enhanced thrombolysis	enhanced thrombolysis	
C[S+](C)CC(=O)CC[C@H](NC(=O)[C@H](Cc1ccccc1)NC(=O)OCc1ccccc1)C(=O)O [Compound 1, N-benzyloxycarbonyl-L-phenylalanyl-6-dimethylsulfonium-5-oxo-L-norleucine]	50		greatly increased	increased		30			inhibit stabilized fibrin clot formation
